Reference: patent publication US20240025905A1, “SALTS OF DIHYDROPYRIMIDINE DERIVATIVES, COMPLEXES AND USES THEREOF IN MEDICINE” (SUNSHINE LAKE PHARMA CO., LTD., priority 2020, published 2024)

Key:
[1] = Stability test (high temperature, high humidity and light tests); type: physicochemical
Procedure: High temperature test: An appropriate amount of the test product was added into a flat weighing bottle and spread into a thin layer with thickness ≤5 mm. The bottle was placed at 60° C. or 40° C. for 10 days. Samples were taken at the 5th and 10th days to check the appearance, related substances and purity.
High humidity test: An appropriate amount of the test product was added into a flat weighing bottle and spread into a thin layer with thickness 5 mm. The bottle was placed at 25° C. and a relative humidity of 90%±5% for 10 days. Samples were taken at the 5th and 10th days to check the appearance, related substances and purity. At the same time, the weight of the test product before and after the test were accurately weighed to investigate the moisture absorption and deliquescence performance of the test product. Light test: An appropriate amount of the test product was added into a flat weighing bottle and spread into a thin layer with thickness ≤5 mm. The bottle was opened and placed in a light box (with UV) at the illuminance 4500±500 lx, UV light≥0.7 w/m^2 for 10 days. Samples were taken at the 5th and 10th days to check the appearance, related substances and purity.

[2] = Pharmacokinetic evaluation of experimental animals after oral administration; type: in vivo, Beagle dogs; settings: dog
Procedure: Blood samples were taken at 0.25, 0.5, 1, 2, 4, 6, 8 and 24 hours from forelimb vein after the administration, and collected in anticoagulation tube with EDTA-K2. After liquid-liquid extraction, the blood samples were quantitatively analyzed on a triple quadrupole tandem mass spectrometer using multiple reactive ion monitoring (MRM). Pharmacokinetic parameters (AUC0-t and Cmax) were calculated using a noncompartmental method by WinNonLin 6.3 software.

HBV = settings: PCT application WO2019076310A1; cited from earlier work

## COC(=O)C1=C(CN2CCN3C(=O)N(c4ccc(CCC(=O)O)cc4F)C[C@@H]3C2)NC(c2nccs2)=N[C@H]1c1ccc(F)cc1Cl [Compound having Formula (I), 3-(4-((S)-7-(((R)-6-(2-chloro-4-fluorophenyl)-5-(methoxycarbonyl)-2-(thiazol-2-yl)-3,6-dihydropyrimidin-4-yl)methyl)-3-oxohexahydroimidazo[1,5-a]pyrazine-2(3H)-yl)-3-fluorophenyl)propionic acid]
[1]; 0 days
  Purity (%): 98.61%
[1]; High humidity (90% RH), 25° C., 5 days
  Purity (%): 98.66%
[1]; High humidity (90% RH), 25° C., 10 days
  Purity (%): 98.75%
[1]; High temperature (60° C.), 5 days
  Purity (%): 95.40%
[1]; High temperature (60° C.), 10 days
  Purity (%): 94.07%
[1]; Light (4500±500 lx, UV light≥0.7 w/m^2), 5 days
  Purity (%): 98.66%
[1]; Light (4500±500 lx, UV light≥0.7 w/m^2), 10 days
  Purity (%): 98.20%
[1]; high temperature (such as 60° C.)
  stability under high temperature (in words): unstable
[2]; blood, beagle dogs, oral via capsules, 10 mg/kg, read-out: AUC0-t
  AUC0-t: 6340 ng·h/mL
[2]; blood, beagle dogs, oral via capsules, 10 mg/kg, read-out: Cmax
  Cmax: 3720 ng/mL
[2]; in vivo
  absorption in the body / in animals (in words): unsatisfactory
HBV
  HBV inhibitory activity (in words): good HBV inhibitory activity
